US12324841B2, “Methods of treating cancer with a combination of an anti-PD-1 antibody and an anti-tissue factor antibody-drug conjugate” (GENMAB A/S, priority 2018, dated 2025)
Entries after “also recorded” stand apart in the source; their conditions may differ. Non-standard residues stand in square brackets, D forms with d. Residues, ends and D or L forms follow the SMILES beside them. *: point of attachment. Dolaproine = CO[C@@H]([C@@H]1CCCN1)[C@@H](C)C(=O)O; Dil = CC[C@H](C)[C@H](NC)[C@@H](CC(=O)O)OC; X1 = C[C@@H](N*)[C@@H](O)c1ccccc1; NMeV = CN[C@H](C(=O)O)C(C)C

Experiments:
[1] = system: Tissue Factor positive cell lines; experiment: Cell death and release of ATP and HMGB1 from Tissue Factor positive cell lines; assay type: cell-based
From the text: Auristatin ADC payloads disrupt the microtubule networks resulting in altered ER localization and function, which ultimately results in ER stress.

HeLa cells [2] = experiment: Imaging of RFP-labeled tubulin and ER-binding dye in HeLa cells treated with MMAE; assay type: cell-based; details: 100 nM MMAE
Description: Treatment of HeLa cells with MMAE led to disassembly of the microtubule network and subsequent ER mislocalization. HeLa cells were transduced with a baculovirus encoding RFP-labeled Tubulin (CellLight Tubulin-RFP, ThermoFisher Scientific) and an ER-binding dye (ER-ID Green, Enzo Life Sciences). Cells were treated with 100 nM MMAE and imaged over time in the present of MMAE. Within 2 hours, fragmentation and disassembly of the microtubule network became evident, concurrent with the breakdown of the perinuclear organized ER lattice (FIGS. 2A and 2B). The condensed and mislocalized ER skeleton indicated severe ER stress within 8 hours.

[3] = system: HPAFII (pancreatic carcinoma); experiment: Western blot analysis of ER stress induction in HPAFII cells; assay type: cell-based; details: 18 hours (legend: 16 hours)
Description: (§1) Induction of cell death and release of ICD danger signals occurs concomitant with initiation of an ER stress response. Two Tissue Factor positive cell lines, HPAFII (pancreatic carcinoma) and MDA-MB-231 (breast cell carcinoma) were exposed to tisotumab vedotin ADC, an Isotype-MMAE ADC (H00-MMAE, IgG1 MMAE), or free MMAE for 18 hours and induction of ER stress monitored by western blot analysis. Phosphorylation of inositol-requiring transmembrane kinase/endonuclease 1 (IRE1) was detected after treatment with tisotumab vedotin ADC or MMAE free drug (FIG. 6). […] The ability for auristatins to prime the immune system to recognize tumor antigens opens the door for a myriad of combinatorial therapeutic options.

[4] = system: MDA-MB-231 (breast cell carcinoma); experiment: Western blot analysis of ER stress induction in MDA-MB-231 cells; assay type: cell-based; details: MDA-MB-231, 18 hours (legend: 16 hours)
Description: as §1

T cells = experiment: T cell activation in CSFE labeled PBMCs fed killed MDA-MB-231 cells, with or without pembrolizumab; assay type: cell-based, human; details: 48 hours; for T cell proliferation (CSFE dilution) / production of IFNγ / production of IL12p70: without pembrolizumab
Description: FIG. 8A-8C is a series of graphs in which Tissue Factor positive MDA-MB-231 cells killed with various agents were fed to CSFE labeled human peripheral blood mononuclear cells (PBMCs) in the presence or absence of the PD1 targeting antibody pembrolizumab for 48 hours and T cells activation assessed by A) decreased CSFE fluorescent indicative of T cell proliferation and B) and C) cytokine production.
Induction of the innate immune response following exposure to cancer cells undergoing ICD sets up secondary T cell activation, which can be enhanced by concomitant pembrolizumab treatment.

HeLa cells [5] = experiment: Western blot analysis of ER stress in HeLa cells treated with MMAE; assay type: cell-based; details: 100 nM MMAE for 16 hours
Description: HeLa cells, a cervical cancer cell line, were cultured in Minimum Essential Medium (MEM) with 10% FBS, 10 mM HEPES, 1 mM sodium pyruvate, 2 mM L-glutamine, penicillin (100U/ml), and streptomycin (100 μg/ml). HeLa cells were treated with 100 nM MMAE for 16 hours and harvested in radioimmunoprecipitation assay buffer (RIPA) buffer for western blot analysis. […] Severe ER stress is a prerequisite to the exposure of pro-phagocytic signals on the surface of tumor cells, and can be indicated by activation of JNK signaling by phosphorylated IRE1.

[6] = system: murine tumor cells that stably express human TF; experiment: Syngeneic tumor model: immunization with drug-killed human TF positive murine tumor cells, then tumor challenge; assay type: in vivo, Balb/c mice; details: mice immunized with tumor cells killed by 1-5 μg per ml tisotumab vedotin or 100 nM MMAE
Description: Mouse tumor cells are transfected with plasmid constructs encoding human tissue factor (TF) and sgRNA-guided Cas9 nuclease (sgRNA/Cas9) to generate a murine cell line that expresses the human TF. Fluorescence activated cell sorting (FACS) yields a clonal population of murine tumor cells that stably express human TF, these cells are then treated with 1 μg to 5 μg per ml of tisotumab vedotin or 100 nM of MMAE for 4 days. In order to prepare dying cells for immunization, treated murine tumor cells are overlaid atop Histopaque, and centrifuged at 2000 g for 30 minutes. Dead and dying cells are pelleted underneath the Histopaque layer, and viability assessed by trypan blue exclusion. A sample with approximately <20% live cells as measured by trypan blue exclusion is obtained. Flash-frozen tumor cells are prepared by submerging the cells in liquid nitrogen for 10 seconds, followed by immersion in 37° C. water until completely thawed. The liquid nitrogen freeze-thaw process is repeated 5 times. Dead and dying human TF positive tumor cells are resuspended in phosphate buffered saline (PBS) and 2×10^6 cells are injected into the peritoneum of immune-competent Balb/c mice. Seven days later, mice receive a second immunization with dead and dying cells prepared in the same manner.
Fourteen days after initial immunization with the dead and dying human TF positive tumor cells, mice are subcutaneously implanted with 5×10^6 wild-type tumor cells and monitored for tumor growth. […] As these effects occur in the absence of any administered therapeutic agent, the administration of cells killed by tisotumab vedotin or MMAE is sufficient to generate long-lasting protective immune memory against subsequent tumor cell challenge. Protective immune memory is amplified by treating these mice with tisotumab vedotin in combination with an antibody that binds to murine PD-1.

HeLa cells [7] = experiment: ATP and HMGB1 secretion from HeLa cells treated with MMAE; assay type: cell-based; details: 100 nM MMAE, over 24 hours, vs untreated HeLa cells
From the text: Induction of ICD is also characterized by the secretion of ATP and HMGB1. Extracellular ATP serves as a strong chemotactic signal, promoting immune cell migration to the tumor site. Upon arrival, extracellular HMGB1 signals through various pro-inflammatory receptors (TLR2, TLR4, RAGE) to activate antigen-presenting cells, thereby promoting immune activity within the tumor.

[8] = system: CD14+ monocyte/macrophages; experiment: Monocyte/macrophage activation in PBMCs fed killed MDA-MB-231 cells; assay type: cell-based, human
From the text: FIGS. 7A and 7B is a series of graphs in which Tissue Factor positive MDA-MB-231 cells killed with various agents were fed to human peripheral blood mononuclear cells (PBMCs) and immune activation assessed by increased expression of activations markers on innate CD14+ monocyte/macrophages and induction of chemokine and cytokine production.
Immunogenic cell death, as mediated by MMAE, is regulated cell death that activates adaptive immune responses against antigens from dead and dying tumor cells, and allows for the generation of robust innate immune cell activation and subsequent cytotoxic T cell responses targeted towards specific tumor cell antigens. […] Furthermore, these monocyte/macrophages conditioned by ICD-killed cells promote activation of T cells, as evidenced by production of signature inflammatory cytokines associated with cytotoxic T cell responses.

advanced cervical cancer [9] = details: in combination with chemotherapy; cited from earlier work
advanced cervical cancer [10] = details: Pembrolizumab 200 mg Q3W, 82 patients; cited from earlier work
[11] = managed with interruptions of pembrolizumab, corticosteroids and/or other supportive care; cited from earlier work
[12] = system: MDA-MB-231 cells (breast adenocarcinoma); experiment: MDA-MB-231 xenograft model in humanized NSG mice; assay type: in vivo; details: pembrolizumab alone, first dose 10 mg/kg, then 5 mg/kg every five days, IP
Description: Mice were subcutaneously inoculated with 5×10^6 MDA-MB-231 cells (breast adenocarcinoma; American Tissue Culture Collection (ATCC), cat. no. HTB-26), in 100 μL phosphate-buffered saline (PBS). Before inoculation, cells were cultured in DMEM with high glucose and HEPES without L-glutamine (Lonza, cat. no. BE12-[…]), 10% (v/v) donor bovine serum with iron New Zealand Origin (Thermo Fisher Scientific, DBSI, cat. no. 10371-029), 2 mM L-glutamine (Lonza, cat. no. BE17-[…]), 1 mM Na-pyruvate (Lonza, cat. no. BE13-[…]), MEM non-essential amino acids (Life Technologies, cat. no. 11140) and 1% (v/v) penicillin/streptomycin (Lonza, cat. no. DE17-[…]), in CellSTACK culture chambers (Corning, cat. no. 3313). Tumor size was determined by caliper measurement at least two times a week and tumor volume was calculated as 0.52×length×width^2. […] The first dose of the anti-PD-1 antibody (i.e., pembrolizumab) was 10 mg/kg, followed by 5 mg/kg every five days for a maximum of six treatments. […] The IgG1 isotype control antibody is the b12 antibody which is known to bind to HIV-1 gp120. […] Mice were housed in individually ventilated (IVC) cages, five mice per cage and identified by ear tags. […] Statistical comparison of tumor burden was performed using Mann-Whitney analysis on the last day that all treatment groups were intact. Kaplan-Meier analysis was performed based on tumor volume (>500 mm^3).

[13] = compared to IgG1-MMAE ADC or tisotumab alone

With `CC[C@H](C)[C@@H]([C@@H](CC(=O)N1CCC[C@H]1[C@H](OC)[C@@H](C)C(=O)N[C@H](C)[C@@H](O)c1ccccc1)OC)N(C)C(=O)[C@@H](NC(=O)[C@@H](NC)C(C)C)C(C)C` [MMAE, Monomethyl auristatin E, reference compound] (H-[NMeV]V[Dil][Dolaproine]-X1) the ATP release/secretion ([1]; FIG. 5A) was “drove robust A) ATP secretion; also recorded: specific to tisotumab vedotin ADC and MMAE treatment”, the HMGB1 release/secretion ([1]; FIG. 5C) was “drove robust A) ATP secretion and C) HMGB1 release; also recorded: specific to tisotumab vedotin ADC and MMAE treatment” and the “time until fragmentation and disassembly of the microtubule network, with breakdown of the perinuclear ER lattice” value (HeLa cells [2]) was ≤ 2 h. The “time until severe ER stress (condensed and mislocalized ER skeleton)” value (HeLa cells [2]) was ≤ 8 h, the “ATF4 cleavage (PERK pathway)” value [3] was “upregulation of ATF4 cleavage” and the “phosphorylation of IRE1” value [3] was “detected”. For the same compound, the “phosphorylation of JNK” value [3] was “increased phosphorylation”, the “ATF4 cleavage (PERK pathway)” value [4] was “upregulation of ATF4 cleavage” and the “phosphorylation of IRE1” value [4] was “detected”. The “phosphorylation of JNK” value [4] was “increased phosphorylation”, the “T cell proliferation (CSFE dilution)” value (T cells) was “drove T cell proliferation” and the “production of IFNγ” value (T cells) was “production of T cell specific cytokines such as IL12P70 and IFNγ”. The “production of IL12p70” value (T cells) was “production of T cell specific cytokines such as IL12P70 and IFNγ”, the “phosphorylation of IRE1” value (HeLa cells [5]) was “led to phosphorylation of the serine threonine kinase IRE1” and the “phosphorylation of JNK” value (HeLa cells [5]) was “elicited severe ER stress by phosphorylation of IRE1 and JNK”. For the same compound, the “survival after challenge with wild-type tumor cells” value [6] was “increased survival”, the “tumor growth after challenge with wild-type tumor cells” value [6] was “delayed tumor growth” and the “secretion of ATP” value (HeLa cells [7]) was “increased secretion of ATP and HMGB1”. For the same compound, the “secretion of HMGB1” value (HeLa cells [7]) was “increased secretion of ATP and HMGB1”, the “chemotactic and inflammatory mediators from monocyte/macrophages after uptake of dead cells” value [8] was “elicit strong chemotactic and inflammatory mediators” and the “monocyte/macrophage activation, CD86 expression by flow cytometry” value [8, 13] was “drove monocyte/macrophage activations”. For the same compound, the “release of innate chemokines including MIP 1β” value [8, 13] was “induced release of innate chemokines including MIP 1β”.
In the case of Bevacizumab: an anti-VEGF antibody, the “overall survival in clinical trials” value (advanced cervical cancer [9]) is given as “improved overall survival”.
In the case of “tisotumab: anti-TF antibody 011; heavy chain variable region SEQ ID NO:7, light chain variable region SEQ ID NO:8”, the “T cell proliferation (CSFE dilution)” value (T cells) is reported as “did not elicit these responses”, the “production of IFNγ” value (T cells) is reported as “did not elicit these responses” and the “production of IL12p70” value (T cells) is reported as “did not elicit these responses”.
For “pembrolizumab: anti-PD-1 antibody, a checkpoint inhibitor; heavy chain SEQ ID NO:33 and light chain SEQ ID NO:34 [reference compound]”, the objective response rate (advanced cervical cancer [10]) is given as 12%, the “reversibility of immune-related AEs (irAEs)” value [11] is given as “most irAEs were reversible” and the “T cell proliferation driven by tisotumab vedotin or MMAE killed cells, effect of added pembrolizumab” value (T cells; 2 mg/ml of pembrolizumab) is given as “enhanced”. For the same compound, the “production of IFNγ after tisotumab vedotin or MMAE killed cells, effect of added pembrolizumab” value (T cells; concomitant pembrolizumab) was “increased by concomitant pembrolizumab treatment”, the “production of IL12p70 after tisotumab vedotin or MMAE killed cells, effect of added pembrolizumab” value (T cells; concomitant pembrolizumab) was “increased by concomitant pembrolizumab treatment” and the “tumor burden as assessed by tumor volume” value [12] was “hardly reduced tumor burden”.
